Laboratory results taken from the supplement of paper PMC10307832.

Columns and labels:
Experiment in all cases: relative viability (nuclei count vs DMSO), 5 days (fraction); higher = more cells survive
[1] = compound: Cc1ccc(C(=O)Nc2ccc(CN3CCN(C)CC3)c(C(F)(F)F)c2)cc1C#Cc1cnc2cccnn12 [Ponatinib] + O=C(c1cc(Cc2n[nH]c(=O)c3ccccc23)ccc1F)N1CCN(C(=O)C2CC2)CC1 [Olaparib] (partner 8 µM)
Method in brief: (§1)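 Relative viability equals treated-well nuclei counts divided by vehicle-well nuclei counts. Counts came from 4× images of lung cancer cell lines grown in 1536-well plates for 5 days after pin-tool dosing on the day after seeding. Dosing used one drug alone or a fixed anchor-drug dose plus five library-drug doses (not always all listed) in √10 steps, and values are medians of duplicate plates.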

[2] = compound: Cc1ccc(C(=O)Nc2ccc(CN3CCN(C)CC3)c(C(F)(F)F)c2)cc1C#Cc1cnc2cccnn12 [Ponatinib] + CCNC(=O)c1noc(-c2cc(C(C)C)c(O)cc2O)c1-c1ccc(CN2CCOCC2)cc1 [Luminespib] (partner 0.01 µM)
Method in brief: as §1

[3] = compound: Cc1ccc(Nc2nccc(N(C)c3ccc4c(C)n(C)nc4c3)n2)cc1S(N)(=O)=O [Pazopanib] + CS(=O)(=O)N1CCN(Cc2cc3nc(-c4cccc5[nH]ncc45)nc(N4CCOCC4)c3s2)CC1 [Pictilisib] (partner 1 µM)
Method in brief: as §1

[4] = compound: Cc1ccc(Nc2nccc(N(C)c3ccc4c(C)n(C)nc4c3)n2)cc1S(N)(=O)=O [Pazopanib] + NC(=O)Nc1cc(-c2cccc(F)c2)sc1C(=O)N[C@H]1CCCNC1 [AZD7762] (partner 0.2 µM)
Method in brief: as §1

Cell Line	relative viability ([1]; first compound 0.002 µM)	relative viability ([1]; first compound 0.006325 µM)	relative viability ([1]; first compound 0.06325 µM)	relative viability ([1]; first compound 0.2 µM)	relative viability ([2]; first compound 0.002 µM)	relative viability ([2]; first compound 0.006325 µM)	relative viability ([2]; first compound 0.06325 µM)	relative viability ([2]; first compound 0.2 µM)	relative viability ([3]; first compound 0.01 µM)	relative viability ([3]; first compound 0.03162 µM)	relative viability ([3]; first compound 0.1 µM)	relative viability ([3]; first compound 0.3162 µM)	relative viability ([3]; first compound 1 µM)	relative viability ([4]; first compound 0.01 µM)	relative viability ([4]; first compound 0.03162 µM)	relative viability ([4]; first compound 0.1 µM)	relative viability ([4]; first compound 0.3162 µM)	relative viability ([4]; first compound 1 µM)
NCI-H1975	0.756	0.77	0.787	0.732	0.248	0.24	0.289	0.165	0.263	0.281	0.316	0.309	0.338	0.612	0.667	0.637	0.76	0.692
CAL-12T	0.735	0.663	0.822	0.683	0.37	0.505	0.436	0.447	0.335	0.461	0.527	0.401	0.423	0.594	0.579	0.527	0.568	0.652
NCI-H1623	–	–	–	–	0.372	0.484	0.491	0.426	–	–	–	–	–	–	–	–	–	–
HCC-44	0.942	0.997	0.923	0.929	0.96	0.976	1.22	1.01	0.421	0.599	0.659	0.521	0.673	1.07	0.979	0.979	1.01	0.982
EKVX	0.956	0.897	0.971	0.767	0.941	0.959	0.954	0.871	0.411	0.402	0.415	0.507	0.517	0.705	0.599	0.755	0.654	0.636
NCI-H1651	0.197	0.195	0.18	0.177	0.986	0.864	0.915	1.05	0.456	0.542	0.494	0.611	0.684	0.438	0.451	0.484	0.437	0.435
NCI-H2170	0.583	0.599	0.631	0.639	0.671	0.697	0.665	0.646	0.261	0.299	0.315	0.354	0.317	0.744	0.967	0.94	0.896	0.815
NCI-H1703	0.37	0.449	0.262	0.207	–	–	–	–	0.246	0.24	0.207	0.198	0.173	–	0.12	0.16	0.14	0.125
Calu-6	0.541	0.556	0.497	0.493	–	–	–	–	0.874	1.01	0.993	0.849	0.877	–	–	–	–	–
EBC-1	0.625	0.756	0.77	0.644	–	–	–	–	0.402	0.508	0.376	0.412	0.394	–	–	–	–	–
A-427	0.707	0.835	0.842	0.66	0.908	0.799	1.08	0.75	0.612	0.705	0.692	0.746	0.782	0.864	0.786	0.825	0.784	0.716
NCI-H2405	0.784	0.796	0.95	0.776	0.664	0.833	0.941	0.64	0.321	0.514	0.424	0.583	0.586	0.718	0.772	0.702	0.751	0.74
NCI-H1355	0.668	0.709	0.817	0.739	0.688	0.667	0.874	0.709	–	0.412	0.421	0.508	0.638	0.71	0.802	0.827	0.727	0.719
SK-MES-1	0.765	0.819	0.857	0.769	0.761	0.89	1.01	0.745	0.39	0.365	0.391	0.379	0.335	–	–	–	–	–
RERF-LC-KJ	0.874	0.879	0.988	0.793	1.17	1.32	1.47	1.21	0.447	0.562	0.559	0.495	0.487	0.796	0.915	0.916	1.02	0.992
NCI-H2228	0.622	0.57	0.823	0.566	0.134	0.178	0.109	0.129	0.46	0.386	0.328	0.393	0.511	–	–	–	–	–
HOP-62	0.313	0.172	0.211	0.355	0.87	0.946	0.835	0.781	0.479	0.768	–	0.874	0.874	0.739	0.589	0.527	0.528	0.478
HARA	0.757	0.825	0.777	0.874	0.683	0.948	0.749	0.682	0.26	0.332	0.493	0.479	0.343	0.428	0.303	0.255	0.35	0.349
PC-14	0.334	0.359	0.347	0.284	0.127	0.147	0.195	0.138	0.64	0.612	0.88	0.637	0.686	0.422	0.328	0.268	0.372	0.426
NCI-H1755	0.806	0.856	0.882	0.782	0.249	0.696	0.561	0.359	0.368	0.432	0.386	0.458	0.446	0.434	0.433	0.453	0.42	0.439
HCC-78	0.836	0.819	0.825	0.726	–	–	–	–	0.2	0.216	0.194	0.214	0.202	–	0.654	0.615	0.658	0.604
IA-LM	0.705	0.835	0.785	0.646	–	–	–	–	0.368	0.439	0.4	0.568	0.524	–	–	–	–	–

Cell Line	relative viability ([1]; first compound 0.002 µM)	relative viability ([1]; first compound 0.006325 µM)	relative viability ([1]; first compound 0.06325 µM)	relative viability ([1]; first compound 0.2 µM)	relative viability ([2]; first compound 0.002 µM)	relative viability ([2]; first compound 0.006325 µM)	relative viability ([2]; first compound 0.06325 µM)	relative viability ([2]; first compound 0.2 µM)	relative viability ([3]; first compound 0.01 µM)	relative viability ([3]; first compound 0.03162 µM)	relative viability ([3]; first compound 0.1 µM)	relative viability ([3]; first compound 0.3162 µM)	relative viability ([3]; first compound 1 µM)	relative viability ([4]; first compound 0.01 µM)	relative viability ([4]; first compound 0.03162 µM)	relative viability ([4]; first compound 0.1 µM)	relative viability ([4]; first compound 0.3162 µM)	relative viability ([4]; first compound 1 µM)
NCI-H441	0.437	0.477	0.578	0.438	0.359	0.354	0.305	0.315	0.449	0.52	0.573	0.603	0.39	1.31	1.14	1.08	1.09	1.12
NCI-H322M	0.787	0.729	0.739	0.649	1	1	0.843	0.716	0.498	0.564	0.582	0.571	0.54	0.559	0.539	0.617	0.617	0.669
NCI-H2347	0.546	0.604	0.625	0.547	0.6	0.544	0.487	0.435	0.513	0.648	0.417	0.601	0.548	0.682	0.711	0.773	0.822	0.787
COR-L23	0.277	0.349	0.335	0.303	0.658	0.618	0.669	0.513	0.649	0.771	0.805	0.962	0.881	–	–	–	–	–
NCI-H2087	0.514	0.609	0.635	0.497	0.167	0.135	0.178	0.176	0.784	0.951	0.85	0.963	1.01	1.36	1.23	1.47	1.18	1.12
LC-2-ad	0.764	0.762	0.781	0.713	0.968	0.93	1.17	0.855	0.412	0.436	0.515	0.196	0.527	0.834	0.835	0.906	0.92	0.85
NCI-H2023	0.455	0.465	0.552	0.451	0.749	0.749	0.748	0.543	0.173	0.202	0.278	0.25	0.277	–	–	–	–	–
COR-L 105	0.711	0.709	0.723	0.747	0.651	0.931	0.845	0.895	0.4	0.473	0.411	0.443	0.417	–	–	–	–	–
SK-LU-1	0.36	0.491	0.535	0.388	0.196	0.213	0.2	0.175	0.434	0.636	0.543	0.633	0.589	–	–	–	–	–
NCI-H661	0.724	0.704	0.833	0.737	0.916	0.903	0.898	0.927	0.353	0.417	0.366	0.376	0.446	–	–	–	–	–
SW 1573	0.591	0.519	0.496	0.408	0.266	0.321	0.25	0.259	0.412	0.531	0.514	0.632	0.537	–	–	–	–	–
NCI-H2342	0.473	0.483	0.424	0.467	0.759	0.701	0.834	0.601	–	–	–	–	–	0.455	0.484	0.562	0.521	0.474
NCI-H1299	0.981	0.955	0.938	0.876	–	–	–	–	0.791	0.79	0.82	0.952	0.693	–	–	–	–	–
NCI-H1650	0.919	0.884	0.916	0.751	0.255	0.236	0.2	0.186	0.54	0.696	0.529	0.611	0.661	–	–	–	–	–
NCI-H2009	0.586	0.632	0.655	0.616	0.975	0.967	1.02	0.918	0.748	0.803	0.786	0.859	0.947	–	–	–	–	–
SW 900	0.958	0.867	0.95	0.725	0.179	0.19	0.243	0.204	–	–	–	–	–	0.462	0.566	–	0.635	0.605
NCI-H1648	0.49	0.897	0.572	0.51	–	–	–	–	–	–	–	–	–	–	–	0.668	0.711	0.796
NCI-H522	0.731	0.708	0.632	0.507	1.17	1.3	1.18	1.09	–	–	–	–	–	0.679	0.667	1.09	1.03	0.857
HCC-366	0.323	0.382	0.482	0.328	–	–	–	–	0.0942	0.155	0.116	0.164	0.159	0.321	0.202	0.314	0.276	0.238
A549	0.299	0.384	0.394	0.384	–	–	–	–	0.494	0.477	0.63	0.589	0.423	–	–	–	–	–
NCI-H520	0.335	0.355	0.325	0.225	0.207	0.209	0.19	0.223	–	0.302	0.335	0.278	0.254	–	–	–	–	–
NCI-H1563	–	–	–	–	0.48	0.535	0.595	0.476	0.664	0.637	0.697	0.667	0.627	–	–	–	–	–
